In the assay the target is Coagulation factor XI (Homo sapiens, UniProt P03951). The assay is described as follows: In Vitro Inhibitory Effect of the Compounds of the Present Invention on the Enzymatic Activity of Blood-Coagulation Factor XIa: The following method was used to test the in vitro inhibitory effect of the compounds of the present invention on the activity of human blood-coagulation factor XIa, expressed by the Inhibition constant Ki.Solution preparation: reaction buffer: 0.03M HEPES acid, 0.145M NaCl, 0.005 M KCl, 0.1% PEG-8000, pH=7.5;HEPES 8.499 g, NaCl 8.47 g, KCl 0.3725, PEG 8000 1 g, plus ddH2O 800 ml; the pH was adjusted to 7.4 with HCl, and the volume was metered to 1 L.S2366 substrate stock solution (2 mM): a volume of substrate ([…]) was dissolved in 23 ml sterile deionized water, aliquoted, and stored at 4° C. in darkness.S2366 substrate working solution: the stock solution was diluted by 4 folds with the reaction buffer before use.FXIa working solution: 1 μl FXIa stock solution was added to 10 ml reaction buffer and thoroughly mixed before use.Method: 15 μl test sample working solution (15 μl DMSO for the control group) and 75 μl FXIa working solution were added to a 96-well plate, and incubated at room temperature for 15 min. Then 60 μl S2366 substrate working solution was added to initiate the reaction. […].
Chain of Coagulation factor XI (P03951 19-387 limits assumed): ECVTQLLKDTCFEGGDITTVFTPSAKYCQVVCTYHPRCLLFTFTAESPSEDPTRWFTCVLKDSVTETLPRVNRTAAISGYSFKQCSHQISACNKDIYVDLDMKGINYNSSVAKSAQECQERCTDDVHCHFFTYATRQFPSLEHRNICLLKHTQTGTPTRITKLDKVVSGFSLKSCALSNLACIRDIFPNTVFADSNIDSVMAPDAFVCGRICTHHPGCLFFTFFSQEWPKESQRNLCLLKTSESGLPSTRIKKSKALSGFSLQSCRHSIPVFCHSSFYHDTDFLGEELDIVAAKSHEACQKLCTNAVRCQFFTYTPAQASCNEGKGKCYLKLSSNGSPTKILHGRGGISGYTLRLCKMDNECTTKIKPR
Chain of Coagulation factor XI (P03951 388-625 limits assumed): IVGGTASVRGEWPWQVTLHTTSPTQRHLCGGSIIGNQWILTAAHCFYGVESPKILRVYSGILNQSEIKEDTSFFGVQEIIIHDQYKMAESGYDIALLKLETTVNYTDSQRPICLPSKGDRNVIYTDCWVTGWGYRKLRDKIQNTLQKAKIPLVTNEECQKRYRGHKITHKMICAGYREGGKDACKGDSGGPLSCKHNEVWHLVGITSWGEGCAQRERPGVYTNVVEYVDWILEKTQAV

What is called Ki is a dissociation constant, usually derived from enzyme kinetics or from competition with a known ligand. `COC(=O)Nc1ccc(NC(=O)C2CCc3cc(-c4cc(Cl)ccc4-n4cnnn4)cc(=O)n32)cc1` (stereo unspecified): the Ki was 344 nM.

The values above are taken from ChEMBL document CHEMBL5726156, “Pyridone or pyrimidone derivative, preparation method therefor and application thereof” (2019).
